In assay [1] the test system is ASPC1 cells, pERK. The assay is described as follows: Inhibition of KRas phosphorylation of ERK (Cisbio HTRF Advanced pERK assay). The conditions noted are these: Homo sapiens, ASPC1, 3 h, AsPC-1 cells, read-out: Inhibition (HTRF IC50 nM) of KRas-mediated Phosphorylation of ERK, AsPC-1. Type of assay: cell-based. In short, it runs like this: (§1)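 Cells seeded at 6,000/well in RPMI with 10% FBS, grown overnight at 37 °C, then exposed 3 h to 10-dose 3-fold compound series from 10 uM (0.8% DMSO final); 0.2 uM trametinib as minimum control. Lysates read for pERK by HTRF after 2 h antibody incubation at room temperature.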
A general note: Time-resolved FRET reads energy transfer from a long-lived donor to a nearby acceptor.

The test system of assay [2] is H727 cells, pERK. Described as above. Type of assay: cell-based. The conditions noted are these: Homo sapiens, NCI-H727, 3 h, read-out: Inhibition (HTRF IC50 nM) of KRas-mediated Phosphorylation of ERK, H727. The method in brief: as §1
Assay [3] concerns H460 cells, pERK. The assay is described as above. Type of assay: cell-based. The conditions noted are these: Homo sapiens, NCI-H460, 3 hrs, read-out: Inhibition (HTRF IC50 nM) of KRas-mediated Phosphorylation of ERK, H460. The method in brief:
as §1

Assay [4] concerns H358 cells, pERK. The assay is described as above. It counts as cell-based. The conditions noted are these: Homo sapiens, NCI-H358, 3 hrs, read-out: Inhibition (HTRF IC50 nM) of KRas-mediated Phosphorylation of ERK, H358. In short, it runs like this:
as §1

Assay [5] concerns PSN1 cells, pERK. The assay is described as above. The conditions noted are these: Homo sapiens, PSN1, 3 h, read-out: Inhibition (HTRF IC50 nM) of KRas-mediated Phosphorylation of ERK, PSN1. Type of assay: cell-based. The method in brief:
as §1

Assay [6] deals with HCT116 cells, pERK. The assay is described as above. Type of assay: cell-based. The note with it: Homo sapiens, HCT-116, 3 hrs, read-out: Inhibition (HTRF IC50 nM) of KRas-mediated Phosphorylation of ERK, HCT116. In short, it runs like this:
as §1

In assay [7] the test system is MKN1 cells, pERK. The description is as above. Type of assay: cell-based. The note with it: Homo sapiens, MKN-1, 3 h, read-out: Inhibition (HTRF IC50 nM) of KRas-mediated Phosphorylation of ERK, MKN1. In short, it runs like this: as §1
Assay [8] deals with AsPC-1 (G12D) cells, phospho-ERK. Kind of assay: Inhibition of KRas-mediated phosphorylation of ERK (phospho-ERK/GAPDH antibody detection, LI-COR). Type of assay: cell-based. The note with it: Homo sapiens, ASPC1, 3 hours. In short, it runs like this:
(§2)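 Cells seeded 20,000/well, attached 12-14 h, then compound (0.5% DMSO) for 3 h. Formaldehyde-fixed, methanol-permeabilized cells stained for phospho-ERK (Thr202/Tyr204) and GAPDH; infrared imaging. Ratio expressed as % of DMSO control; IC50 from 4-parameter fit.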

The subject of assay [9] is NCI-H727 (G12V) cells, phospho-ERK. The assay is described as above. It counts as cell-based. The note with it: Homo sapiens, 3 hours. The method in brief:
as §2

In assay [10] the test system is NCI-H460 (Q61H) cells, phospho-ERK. Described as above. The conditions noted are these: Homo sapiens, 3 hours. It counts as cell-based. In short, it runs like this:
as §2

Assay [11] addresses T1, KRas^G12V (Homo sapiens, UniProt P01116, G12V).
T1 construct: […]; biotin (biotinylated); purchased Accelegan Inc
Kind of assay: KRas binding assay (TR-FRET displacement of Cy5 labelled tracer).
Description: (§3) The ability of a compound to bind to KRas was measured using a TR-FRET displacement assay. […] After a 60-minute incubation at room temperature, the reaction was measured using a BMG LABTECH CLARIO star Plus via TR-FRET. […] The POC values were fit to a 4-parameter IC50 equation and the IC50 value reported.

The target of assay [12] is T2, KRas^G12D (Homo sapiens, UniProt P01116, G12D).
T2 construct: […]; biotin (biotinylated); purchased Accelegan Inc
The description is as above.
Description: as §3

For assay [13], the target named is T3, KRas^G12R (Homo sapiens, UniProt P01116, G12R).
T3 construct: […]; biotin (biotinylated); purchased Accelegan Inc
The assay is described as above.
Description: as §3

This note sets out measurements from patent US12421253B2 (Mirati Therapeutics, Inc., priority 2020, dated 2025).

pIC50: −log10 of the molar value.

T2 sequence (P01116 1-169 isoform P01116-2 G12D): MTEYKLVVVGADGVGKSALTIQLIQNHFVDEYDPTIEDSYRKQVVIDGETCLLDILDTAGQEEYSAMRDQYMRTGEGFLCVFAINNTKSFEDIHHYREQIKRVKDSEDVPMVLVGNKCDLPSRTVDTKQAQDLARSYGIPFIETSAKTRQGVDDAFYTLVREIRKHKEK
T3 sequence (P01116 1-169 isoform P01116-2 G12R): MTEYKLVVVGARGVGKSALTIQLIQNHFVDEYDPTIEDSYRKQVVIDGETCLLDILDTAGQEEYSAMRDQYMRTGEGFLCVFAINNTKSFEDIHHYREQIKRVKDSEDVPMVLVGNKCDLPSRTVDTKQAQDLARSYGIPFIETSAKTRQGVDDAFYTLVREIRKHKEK
T1 sequence (P01116 1-169 isoform P01116-2 G12V): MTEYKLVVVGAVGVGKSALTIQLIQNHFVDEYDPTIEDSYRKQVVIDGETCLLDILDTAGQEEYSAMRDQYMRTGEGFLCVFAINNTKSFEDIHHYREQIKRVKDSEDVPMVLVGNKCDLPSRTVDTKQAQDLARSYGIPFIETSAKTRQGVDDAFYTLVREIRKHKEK

Consider `CCc1c(F)ccc2cc(O)cc(N3CCc4c(nc(OC[C@@]56CCCN5C[C@H](F)C6)nc4N4CCCC(O)CC4)C3)c12` (stereo partly drawn) [Example 30, 1-(7-(8-ethyl-7-fluoro-3-hydroxynaphthalen-1-yl)-2-(((2R,7aS)-2-fluorohexahydro-1H-pyrrolizin-7a-yl)methoxy)-5,6,7,8-tetrahydropyrido[3,4-d]pyrimidin-4-yl)azepan-4-ol], for which the IC50 (in general, the point on the concentration scale where inhibition reaches its midpoint) is 86 nM in assay [1]; 227 nM in assay [2]; 203 nM in [3]; 83 nM in [4]; 3510 nM in assay [5]; 480 nM in [6]. For the same compound, the IC50 in [7] came out at 16 nM; in [8], 447 nM; in assay [9], 399 nM; in assay [10] it was 309 nM. Moreover, the negative logarithm of the IC50 (pIC50) in [11], in assay [12] and in [13] was at least 8.70 in each case.
On to `CCc1c(F)ccc2cc(O)cc(N3CCc4c(nc(OC[C@@]56CCCN5C[C@H](F)C6)nc4N4CCCn5nc(C(=O)N6CCOCC6)cc5C4)C3)c12` [Example 193, (5-(7-(8-ethyl-7-fluoro-3-hydroxynaphthalen-1-yl)-2-(((2R,7aS)-2-fluorohexahydro-1H-pyrrolizin-7a-yl)methoxy)-5,6,7,8-tetrahydropyrido[3,4-d]pyrimidin-4-yl)-5,6,7,8-tetrahydro-4H-pyrazolo[1,5-a][1,4]diazepin-2-yl)(morpholino)methanone], for which the half-inhibitory concentration (IC50) amounted to 3 nM in assay [1]; 5 nM in assay [2]; 38 nM in assay [3]; 2 nM in [4]; 2100 nM in assay [5]; 74 nM in assay [6]. Besides, the half-maximal inhibitory concentration (IC50) in [7] worked out at 4 nM. The negative-log IC50 (pIC50) in [11], in assay [12] and in assay [13] was at least 8.70 in each case.
As to `O=S1(=O)NCC2(CCCN(c3nc(OC[C@@]45CCCN4C[C@H](F)C5)nc4c3CCN(c3cc(O)cc5ccc(F)c(Br)c35)C4)C2)N1` (stereo partly drawn) [Example 225, 7-(7-(8-bromo-7-fluoro-3-hydroxynaphthalen-1-yl)-2-(((2R,7aS)-2-fluorohexahydro-1H-pyrrolizin-7a-yl)methoxy)-5,6,7,8-tetrahydropyrido[3,4-d]pyrimidin-4-yl)-2-thia-1,3,7-triazaspiro[4.5]decane 2,2-dioxide], the IC50 in assay [1] was 23 nM; in [2], 82 nM; in assay [3], 56 nM; in assay [4], 9 nM; in assay [5], 328 nM; in [6], 158 nM. Further, the half-inhibitory concentration (IC50) in assay [7] was 3 nM. The pIC50 in assay [11], in assay [12] and in [13] was at least 8.70 throughout.
Consider `O=C1NC(=O)C2CN(c3nc(OC[C@@]45CCCN4C[C@H](F)C5)nc4c3CCN(c3cc(O)cc5ccc(F)c(Br)c35)C4)CC12` (stereo partly drawn) [Example 226, 5-(7-(8-bromo-7-fluoro-3-hydroxynaphthalen-1-yl)-2-(((2R,7aS)-2-fluorohexahydro-1H-pyrrolizin-7a-yl)methoxy)-5,6,7,8-tetrahydropyrido[3,4-d]pyrimidin-4-yl)tetrahydropyrrolo[3,4-c]pyrrole-1,3(2H,3aH)-dione], for which the half-maximal inhibitory concentration (IC50) in assay [1] worked out at 45 nM; in assay [2], 43 nM; in [3] it was 169 nM; in assay [4], 22 nM; in assay [5], 2790 nM; in assay [7] it was 7 nM. For the same compound, the pIC50 in [11], in [12] and in assay [13] was at least 8.70 in each case.
